Assay results reported in patent publication US20230085307A1, “PYRIDAZINONE COMPOUND AND HERBICIDE” (NISSAN CHEMICAL CORPORATION, priority 2019, published 2023).

Columns and labels:
late watergrass = assay: Test Example 2: herbicidal activity, application during weed generation under submerged conditions (Table 17, symbol A); assay type: in vivo, late watergrass (Echinochloa oryzicola); settings: AAH 320 g/ha; application during weed generation, submerged conditions
Method in brief: (§1)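 In this pot test, flooded alluvial soil (water depth 4 cm) holds all three species sown as a mixture. Once seedlings have one to two leaves, the compound's emulsion, thinned with water to the intended dose, is poured on the water; grading follows after three weeks on the earlier criteria.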

Japanese bulrush = assay: Test Example 2: herbicidal activity, application during weed generation under submerged conditions (Table 17, symbol B); assay type: in vivo, Japanese bulrush (Schoenoplectus juncoides); settings: AAH 320 g/ha; application during weed generation, submerged conditions
Method in brief: as §1

barnyard grass [1] = assay: Test Example 3: herbicidal effect by foliage application, Wagner pot (Table 18, symbol H); assay type: in vivo, barnyard grass (Echinochloa crus-galli); settings: 320 g/ha
Method in brief: (§2)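 Plants were sown in alluvial soil held under 0.1–0.5 cm standing water and grown 14 days in a greenhouse at 25–30 °C. An emulsifiable formulation, water-diluted to the set dose, was then sprayed onto the foliage, and effects were scored three weeks later using previously defined criteria.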

rice flat sedge = assay: Test Example 3: herbicidal effect by foliage application, Wagner pot (Table 18, symbol E); assay type: in vivo, rice flat sedge (Cyperus iria); settings: 320 g/ha
Method in brief: as §2

southern crabgrass = assay: Test Example 4: herbicidal effect by soil treatment (Table 19, symbol F); assay type: in vivo, southern crabgrass (Digitaria ciliaris); settings: for F: southern crabgrass, herbicidal effect rating: AAH 320 g/ha
Method in brief: (§3)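 Herbicidal effect was rated 3 weeks after treatment, using the scoring criteria of an earlier test. The compound, formulated as an emulsion and diluted in water to a set herbicide amount, had been sprayed uniformly on soil over freshly sown seeds. Growth took place in a greenhouse at 25° C. to 30° C.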

green foxtail [2] = assay: Test Example 4: herbicidal effect by soil treatment (Table 19, symbol G); assay type: in vivo, green foxtail (Setaria viridis); settings: for G: green foxtail, herbicidal effect rating: AAH 320 g/ha
Method in brief: as §3

barnyard grass [3] = assay: Test Example 4: herbicidal effect by soil treatment (Table 19, symbol H); assay type: in vivo, barnyard grass (Echinochloa crus-galli); settings: for H: barnyard grass, herbicidal effect rating: AAH 320 g/ha
Method in brief: as §3

wild oat [4] = assay: Test Example 4: herbicidal effect by soil treatment (Table 19, symbol I); assay type: in vivo, wild oat (Avena fatua); settings: for I: wild oat, herbicidal effect rating: AAH 320 g/ha
Method in brief: as §3

Italian ryegrass [5] = assay: Test Example 4: herbicidal effect by soil treatment (Table 19, symbol K); assay type: in vivo, Italian ryegrass (Lolium multiflorum); settings: for K: Italian ryegrass, herbicidal effect rating: AAH 320 g/ha
Method in brief: as §3

velvetleaf [6] = assay: Test Example 4: herbicidal effect by soil treatment (Table 19, symbol M); assay type: in vivo, velvetleaf (Abutilon theophrasti); settings: for M: velvetleaf, herbicidal effect rating: AAH 320 g/ha
Method in brief: as §3

redroot pigweed = assay: Test Example 4: herbicidal effect by soil treatment (Table 19, symbol N); assay type: in vivo, redroot pigweed (Amaranthus retroflexus); settings: for N: redroot pigweed, herbicidal effect rating: AAH 320 g/ha
Method in brief: as §3

lambsquarters = assay: Test Example 4: herbicidal effect by soil treatment (Table 19, symbol O); assay type: in vivo, lambsquarters (Chenopodium album); settings: for O: lambsquarters, herbicidal effect rating: AAH 320 g/ha
Method in brief: as §3

chickweed = assay: Test Example 4: herbicidal effect by soil treatment (Table 19, symbol P); assay type: in vivo, common chickweed (Stellaria media); settings: for P: chickweed, herbicidal effect rating: AAH 320 g/ha
Method in brief: as §3

green foxtail [7] = assay: Test Example 5: herbicidal effect by foliage application, plastic box (Table 20, symbol G); assay type: in vivo, green foxtail (Setaria viridis); settings: foliage application, 320 g/ha, 3 weeks after application
Method in brief: (§4)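 Foliar spray test: emulsion formulation diluted in water to a set application rate, sprayed onto 14-day-old plants raised in diluvial soil at 25° C to 30° C under glass. Both herbicidal effect and crop effect rated visually three weeks later.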

wild oat [8] = assay: Test Example 5: herbicidal effect by foliage application, plastic box (Table 20, symbol I); assay type: in vivo, wild oat (Avena fatua); settings: foliage application, 320 g/ha, 3 weeks after application
Method in brief: as §4

blackgrass = assay: Test Example 5: herbicidal effect by foliage application, plastic box (Table 20, symbol J); assay type: in vivo, blackgrass (Alopecurus myosuroides); settings: foliage application, 320 g/ha, 3 weeks after application
Method in brief: as §4

Italian ryegrass [9] = assay: Test Example 5: herbicidal effect by foliage application, plastic box (Table 20, symbol K); assay type: in vivo, Italian ryegrass (Lolium multiflorum); settings: foliage application, 320 g/ha, 3 weeks after application
Method in brief: as §4

windgrass = assay: Test Example 5: herbicidal effect by foliage application, plastic box (Table 20, symbol L); assay type: in vivo, windgrass (Apera spica-venti); settings: foliage application, 320 g/ha, 3 weeks after application
Method in brief: as §4

velvetleaf [10] = assay: Test Example 5: herbicidal effect by foliage application, plastic box (Table 20, symbol M); assay type: in vivo, velvetleaf (Abutilon theophrasti); settings: foliage application, 320 g/ha, 3 weeks after application
Method in brief: as §4

persian speedwell = assay: Test Example 5: herbicidal effect by foliage application, plastic box (Table 20, symbol R); assay type: in vivo, Persian speedwell (Veronica persica); settings: foliage application, 320 g/ha, 3 weeks after application
Method in brief: as §4

SMILES: C#CCSCc1ccc(-c2sc3ccccc3c2-c2c(O)c(C)nn(C)c2=O)cc1 [1-247]
- herbicidal effect rating, A: late watergrass (late watergrass): 3 (Herbicidal rate of 40% or more and less than 70%)
- herbicidal effect rating, B: Japanese bulrush (Japanese bulrush): 0 (Herbicidal rate of 5% or less (almost no effect))
- herbicidal effect on H (barnyard grass), rating 0-5 (barnyard grass [1]): 5 (Herbicidal rate of 90% or more (almost completely withered))
- herbicidal effect on E (rice flat sedge), rating 0-5 (rice flat sedge): 4 (Herbicidal rate of 70% or more and less than 90%)
- F: southern crabgrass, herbicidal effect rating (southern crabgrass): 0 (Herbicidal rate of 5% or less (almost no effect))
- G: green foxtail, herbicidal effect rating (green foxtail [2]): 0 (Herbicidal rate of 5% or less (almost no effect))
- H: barnyard grass, herbicidal effect rating (barnyard grass [3]): 0 (Herbicidal rate of 5% or less (almost no effect))
- I: wild oat, herbicidal effect rating (wild oat [4]): 0 (Herbicidal rate of 5% or less (almost no effect))
- K: Italian ryegrass, herbicidal effect rating (Italian ryegrass [5]): 3 (Herbicidal rate of 40% or more and less than 70%)
- M: velvetleaf, herbicidal effect rating (velvetleaf [6]): 0 (Herbicidal rate of 5% or less (almost no effect))
- N: redroot pigweed, herbicidal effect rating (redroot pigweed): 3 (Herbicidal rate of 40% or more and less than 70%)
- O: lambsquarters, herbicidal effect rating (lambsquarters): 3 (Herbicidal rate of 40% or more and less than 70%)
- P: chickweed, herbicidal effect rating (chickweed): 4 (Herbicidal rate of 70% or more and less than 90%)
- effect on green foxtail (G) (green foxtail [7]): 4 (Herbicidal rate of 70% or more and less than 90%)
- effect on wild oat (I) (wild oat [8]): 1 (Herbicidal rate of 5% or more and less than 20%)
- effect on blackgrass (J) (blackgrass): 0 (Herbicidal rate of 5% or less (almost no effect))
- effect on Italian ryegrass (K) (Italian ryegrass [9]): 4 (Herbicidal rate of 70% or more and less than 90%)
- effect on windgrass (L) (windgrass): 0 (Herbicidal rate of 5% or less (almost no effect))
- effect on velvetleaf (M) (velvetleaf [10]): 5 (Herbicidal rate of 90% or more (almost completely withered))
- effect on persian speedwell (R) (persian speedwell): 5 (Herbicidal rate of 90% or more (almost completely withered))

SMILES: Cc1nn(C)c(=O)c(-c2c(-c3ccc(F)cc3)sc3ccc(F)cc23)c1O [2-001]
- herbicidal effect rating, A: late watergrass (late watergrass): 1 (Herbicidal rate of 5% or more and less than 20%)
- herbicidal effect rating, B: Japanese bulrush (Japanese bulrush): 2 (Herbicidal rate of 20% or more and less than 40%)
- herbicidal effect on H (barnyard grass), rating 0-5 (barnyard grass [1]): 5 (Herbicidal rate of 90% or more (almost completely withered))
- herbicidal effect on E (rice flat sedge), rating 0-5 (rice flat sedge): 5 (Herbicidal rate of 90% or more (almost completely withered))
- F: southern crabgrass, herbicidal effect rating (southern crabgrass): 5 (Herbicidal rate of 90% or more (almost completely withered))
- G: green foxtail, herbicidal effect rating (green foxtail [2]): 4 (Herbicidal rate of 70% or more and less than 90%)
- H: barnyard grass, herbicidal effect rating (barnyard grass [3]): 3 (Herbicidal rate of 40% or more and less than 70%)
- I: wild oat, herbicidal effect rating (wild oat [4]): 3 (Herbicidal rate of 40% or more and less than 70%)
- K: Italian ryegrass, herbicidal effect rating (Italian ryegrass [5]): 4 (Herbicidal rate of 70% or more and less than 90%)
- M: velvetleaf, herbicidal effect rating (velvetleaf [6]): 5 (Herbicidal rate of 90% or more (almost completely withered))
- N: redroot pigweed, herbicidal effect rating (redroot pigweed): 5 (Herbicidal rate of 90% or more (almost completely withered))
- O: lambsquarters, herbicidal effect rating (lambsquarters): 5 (Herbicidal rate of 90% or more (almost completely withered))
- P: chickweed, herbicidal effect rating (chickweed): 4 (Herbicidal rate of 70% or more and less than 90%)
- effect on green foxtail (G) (green foxtail [7]): 5 (Herbicidal rate of 90% or more (almost completely withered))
- effect on wild oat (I) (wild oat [8]): 5 (Herbicidal rate of 90% or more (almost completely withered))
- effect on blackgrass (J) (blackgrass): 4 (Herbicidal rate of 70% or more and less than 90%)
- effect on Italian ryegrass (K) (Italian ryegrass [9]): 5 (Herbicidal rate of 90% or more (almost completely withered))
- effect on windgrass (L) (windgrass): 4 (Herbicidal rate of 70% or more and less than 90%)
- effect on velvetleaf (M) (velvetleaf [10]): 5 (Herbicidal rate of 90% or more (almost completely withered))
- effect on persian speedwell (R) (persian speedwell): 5 (Herbicidal rate of 90% or more (almost completely withered))

SMILES: CCCC(=O)Oc1c(C)nn(C)c(=O)c1-c1c(-c2ccc(Cl)cc2)sc2ccc(F)cc12 [2-011]
- herbicidal effect rating, A: late watergrass (late watergrass): 2 (Herbicidal rate of 20% or more and less than 40%)
- herbicidal effect rating, B: Japanese bulrush (Japanese bulrush): 3 (Herbicidal rate of 40% or more and less than 70%)
- herbicidal effect on H (barnyard grass), rating 0-5 (barnyard grass [1]): 5 (Herbicidal rate of 90% or more (almost completely withered))
- herbicidal effect on E (rice flat sedge), rating 0-5 (rice flat sedge): 5 (Herbicidal rate of 90% or more (almost completely withered))
- herbicidal effect rating, F: southern crabgrass (southern crabgrass; 320 g/ha): 3 (Herbicidal rate of 40% or more and less than 70%)
- herbicidal effect rating, G: green foxtail (green foxtail [2]; 320 g/ha): 2 (Herbicidal rate of 20% or more and less than 40%)
- herbicidal effect rating, H: barnyard grass (barnyard grass [3]; 320 g/ha): 3 (Herbicidal rate of 40% or more and less than 70%)
- herbicidal effect rating, I: wild oat (wild oat [4]; 320 g/ha): 0 (Herbicidal rate of 5% or less (almost no effect))
- herbicidal effect rating, K: Italian ryegrass (Italian ryegrass [5]; 320 g/ha): 5 (Herbicidal rate of 90% or more (almost completely withered))
- herbicidal effect rating, M: velvetleaf (velvetleaf [6]; 320 g/ha): 3 (Herbicidal rate of 40% or more and less than 70%)
- herbicidal effect rating, N: redroot pigweed (redroot pigweed; 320 g/ha): 4 (Herbicidal rate of 70% or more and less than 90%)
- herbicidal effect rating, O: lambsquarters (lambsquarters; 320 g/ha): 5 (Herbicidal rate of 90% or more (almost completely withered))
- herbicidal effect rating, P: chickweed (chickweed; 320 g/ha): 2 (Herbicidal rate of 20% or more and less than 40%)
- effect on green foxtail (G) (green foxtail [7]): 5 (Herbicidal rate of 90% or more (almost completely withered))
- effect on wild oat (I) (wild oat [8]): 3 (Herbicidal rate of 40% or more and less than 70%)
- effect on blackgrass (J) (blackgrass): 2 (Herbicidal rate of 20% or more and less than 40%)
- effect on Italian ryegrass (K) (Italian ryegrass [9]): 5 (Herbicidal rate of 90% or more (almost completely withered))
- effect on windgrass (L) (windgrass): 3 (Herbicidal rate of 40% or more and less than 70%)
- effect on velvetleaf (M) (velvetleaf [10]): 5 (Herbicidal rate of 90% or more (almost completely withered))
- effect on persian speedwell (R) (persian speedwell): 5 (Herbicidal rate of 90% or more (almost completely withered))
